Source: patent EP1170365A1, “Member of the ion channel family of polypeptides; vanilrep4” (SMITHKLINE BEECHAM PLC, priority 2000, dated 2002)

Columns and labels:
Type in all cases: cell-based
wild type HEK293 cells = test: FLIPR intracellular calcium assay (Fluo-3) in wild type HEK293 cells; conditions: result in words
[1] = system: cells transfected with empty vector; test: FLIPR intracellular calcium assay (Fluo-3) in HEK293 cells transfected with empty vector; conditions: result in words
hVR1 = molecular target: T1, hVR1 (Homo sapiens, UniProt Q8NER1); test: cell-based; conditions: for activity at VR1: result in words
T1 construct: expressed in transfected cells; host or cells: HEK293 (transient)

hVR4 = molecular target: T2, hVR4 (Homo sapiens, UniProt Q9HBA0); test: FLIPR intracellular calcium assay (Fluo-3) in HEK293 cells transiently expressing hVR4; conditions: for effect on intracellular calcium: HEK293-hVR4 cells, result in words
T2 construct: expressed in transfected cells; host or cells: HEK293 (transient)
Procedure: HEK293 cells transiently expressing hVR1 or hVR4 were seeded into FLIPR96 plates at 25,000cells/well and cultured overnight. The cells were then loaded in medium containing 4microM Fluo-3 for 2hrs, at room temperature, in the dark. The cell plates were then washed 4x with Tyrode containing 1.5mM calcium and 0.2% BSA. Agonist and antagonist plates were prepared in the same buffer. Cells were preincubated with either antagonist or buffer at room temperature for 30 mins. Agonists additions and calcium measurements were made in the FLIPR (Smart et al., (2000) Br J. Pharmacol. 129, 227-230).

T2 sequence (Q9HBA0 whole entry): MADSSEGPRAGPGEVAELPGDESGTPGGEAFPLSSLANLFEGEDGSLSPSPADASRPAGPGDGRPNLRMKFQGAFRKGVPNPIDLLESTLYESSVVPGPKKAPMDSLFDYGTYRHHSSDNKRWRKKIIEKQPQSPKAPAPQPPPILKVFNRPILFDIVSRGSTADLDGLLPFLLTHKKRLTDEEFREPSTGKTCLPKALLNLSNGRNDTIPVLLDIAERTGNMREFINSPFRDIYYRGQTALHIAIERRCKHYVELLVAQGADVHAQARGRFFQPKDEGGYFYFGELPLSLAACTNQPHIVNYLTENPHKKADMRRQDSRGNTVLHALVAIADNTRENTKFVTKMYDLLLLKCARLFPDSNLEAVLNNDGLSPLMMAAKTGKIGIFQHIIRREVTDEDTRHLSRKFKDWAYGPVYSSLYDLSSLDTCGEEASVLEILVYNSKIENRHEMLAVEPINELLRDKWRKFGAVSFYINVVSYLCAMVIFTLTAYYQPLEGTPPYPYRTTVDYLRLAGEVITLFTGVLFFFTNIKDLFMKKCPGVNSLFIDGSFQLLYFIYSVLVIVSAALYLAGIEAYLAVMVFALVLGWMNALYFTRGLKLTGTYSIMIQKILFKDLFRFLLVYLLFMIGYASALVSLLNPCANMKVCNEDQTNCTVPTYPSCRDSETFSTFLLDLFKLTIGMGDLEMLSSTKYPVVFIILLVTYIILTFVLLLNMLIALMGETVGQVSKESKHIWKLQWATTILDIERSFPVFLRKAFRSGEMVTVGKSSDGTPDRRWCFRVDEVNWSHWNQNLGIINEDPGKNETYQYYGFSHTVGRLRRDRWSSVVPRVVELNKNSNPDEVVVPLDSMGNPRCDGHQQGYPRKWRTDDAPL
T1 sequence (Q8NER1 whole entry): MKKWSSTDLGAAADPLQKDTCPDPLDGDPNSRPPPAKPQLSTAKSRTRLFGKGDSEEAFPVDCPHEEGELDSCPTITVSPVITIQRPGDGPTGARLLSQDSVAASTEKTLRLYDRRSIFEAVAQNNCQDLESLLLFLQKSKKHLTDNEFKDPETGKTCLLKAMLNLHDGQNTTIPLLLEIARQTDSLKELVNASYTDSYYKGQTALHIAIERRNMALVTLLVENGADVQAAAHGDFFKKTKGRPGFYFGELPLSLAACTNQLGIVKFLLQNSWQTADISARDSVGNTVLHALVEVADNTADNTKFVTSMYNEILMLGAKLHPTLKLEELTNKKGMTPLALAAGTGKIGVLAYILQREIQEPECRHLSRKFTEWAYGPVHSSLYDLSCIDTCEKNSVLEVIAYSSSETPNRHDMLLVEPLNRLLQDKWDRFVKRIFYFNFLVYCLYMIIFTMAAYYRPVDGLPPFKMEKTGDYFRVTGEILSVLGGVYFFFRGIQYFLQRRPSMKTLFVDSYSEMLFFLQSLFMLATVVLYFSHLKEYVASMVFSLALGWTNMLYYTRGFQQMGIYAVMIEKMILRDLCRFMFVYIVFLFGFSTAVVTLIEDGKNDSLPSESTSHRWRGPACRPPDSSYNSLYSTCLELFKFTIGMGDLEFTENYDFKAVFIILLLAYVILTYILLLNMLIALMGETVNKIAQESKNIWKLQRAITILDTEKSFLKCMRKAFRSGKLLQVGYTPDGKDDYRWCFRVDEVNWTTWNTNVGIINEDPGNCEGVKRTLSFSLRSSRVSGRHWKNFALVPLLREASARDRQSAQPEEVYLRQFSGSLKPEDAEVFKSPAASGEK

SMILES | effect on intracellular calcium (wild type HEK293 cells) | effect on intracellular calcium [1] | activity at VR1 (hVR1; VR1) | effect on intracellular calcium (hVR4) | pEC50 (hVR4; HEK293 cells expressing hVR4, mean±s.e.mean, n=3-5, IA= inactive) | selectivity (hVR4; VR4 versus VR1, conclusion in words) | EC50 (hVR1) [nM] | Emax (hVR1; VR1, compared to capsaicin and RTX) | EC50 (hVR4) [nM]
CCCCCCCCCC(=O)O[C@@H]1[C@@H](C)[C@@]2(O)[C@@H](C=C(CO)C[C@@]3(O)C(=O)C(C)=C[C@@H]23)[C@@H]2C(C)(C)[C@]12OC(=O)CCCCCCCCC [4αPDD, 4α-phorbol-12,13-didecanoate] | without effect | without effect | inactive | increased intracellular calcium | 5.73±0.06 | VR4 selective agonist |  |  | 
C=C(C)C12CC(C)C34OC(Cc5ccccc5)(OC1C3C=C(COC(=O)Cc1ccc(O)c(OC)c1)CC1(O)C(=O)C(C)=CC14)O2 (centres unmarked) [RTX] |  |  |  |  |  |  | 1.17 |  | 
CCCCCCCCCCCCCC(=O)O[C@@H]1[C@@H](C)[C@@]2(O)[C@@H](C=C(CO)C[C@]3(O)C(=O)C(C)=C[C@@H]23)[C@@H]2C(C)(C)[C@]12OC(C)=O [PMA, phorbol 12-myristate 13-acetate] | without effect | without effect | partial agonist | increased intracellular calcium |  |  | 13.8 | 0.46 | 229
